In brackets after ≈: the same amount, converted by molar mass.
Tests used:
[1] = tested on: E. faecalis VSE 1; experiment: MIC, broth microdilution, vancomycin-sensitive E. faecalis (VSE 1); type: cell-based, Enterococcus faecalis; conditions: for MIC: Enterococcus faecalis VSE 1 (vancomycin-sensitive), read-out: MIC; for MIC-fold improvement vs. vancomycin: VSE 1, ratio of MIC of vancomycin and MIC of analogue
How it was run: (§1)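 Following CLSI antimicrobial susceptibility standards, organisms were tested by broth microdilution. Controls comprised ultrapure water plus broth left uninoculated. For a single condition, 10 μM vancomycin (final) accompanied the analog or control agent.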

[2] = tested on: E. faecalis VRE 6; experiment: MIC, broth microdilution, vancomycin-resistant E. faecalis VRE 6 (VanA); type: cell-based, Enterococcus faecalis; conditions: for MIC: Enterococcus faecalis VRE 6 (vancomycin-resistant), read-out: MIC; for MIC-fold improvement vs. vancomycin: VRE 6, ratio of MIC of vancomycin and MIC of analogue
How it was run: as §1

[3] = tested on: E. faecalis VRE 53; experiment: MIC, broth microdilution, vancomycin-resistant E. faecalis VRE 53 (VanA); type: cell-based, Enterococcus faecalis; conditions: for MIC: Enterococcus faecalis VRE 53 (vancomycin-resistant), read-out: MIC; for MIC-fold improvement vs. vancomycin: VRE 53, ratio of MIC of vancomycin and MIC of analogue
How it was run: as §1

[4] = tested on: E. faecalis VRE 29; experiment: MIC, broth microdilution, vancomycin-resistant E. faecalis VRE 29 (VanA); type: cell-based, Enterococcus faecalis; conditions: for MIC: Enterococcus faecalis VRE 29 (vancomycin-resistant), read-out: MIC; for MIC-fold improvement vs. vancomycin: VRE 29, ratio of MIC of vancomycin and MIC of analogue
How it was run: as §1

[5] = tested on: E. faecalis VRE 37; experiment: MIC, broth microdilution, vancomycin-resistant E. faecalis VRE 37 (VanA); type: cell-based, Enterococcus faecalis; conditions: for MIC: Enterococcus faecalis VRE 37 (vancomycin-resistant), read-out: MIC
How it was run: as §1

[6] = tested on: Murine leukemia (L1210) cells; experiment: Cytostatic activity, L1210 cell proliferation; type: cell-based; conditions: mean ± SD of three experiments; highest concentration tested 250 µM; 2 days; read-out: Toxicity (IC50) L1210
How it was run: (§2)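 Suspensions (300,000–500,000 cells/mL) combined with equal volumes of diluted compound; 37°C; L1210 2 d / CEM 3 d / HeLa 4 d; counted by Coulter counter; IC50 vs untreated wells.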

[7] = tested on: human T-lymphocyte (CEM) cells; experiment: Cytostatic activity, CEM cell proliferation; type: cell-based; conditions: mean ± SD of three experiments; highest concentration tested 250 µM; 3 days; read-out: Toxicity (IC50) CEM
How it was run: as §2

[8] = tested on: human cervix carcinoma (HeLa) cells; experiment: Cytostatic activity, HeLa cell proliferation; type: cell-based; conditions: mean ± SD of three experiments; highest concentration tested 250 µM; 4 days; read-out: Toxicity (IC50) HeLa
How it was run: as §2

[9] = tested on: L1210, CEM and HeLa cell lines; experiment: Cytostatic activity, average or summary over L1210, CEM and HeLa; type: cell-based; conditions: average of L1210, CEM and HeLa; read-out: Toxicity (IC50) Average
How it was run: as §2

[10] = tested on: S. aureus VSSA (ATCC 6538); experiment: MIC, broth microdilution, vancomycin-sensitive S. aureus (VSSA/MSSA, ATCC 6538); type: cell-based, Staphylococcus aureus; conditions: for MIC: Staphylococcus aureus VSSA, read-out: MIC; for MIC-fold improvement vs. vancomycin: VSSA, ratio of MIC of vancomycin and MIC of analogue
How it was run: as §1

[11] = tested on: S. aureus VISA/HIP5827; experiment: MIC, broth microdilution, vancomycin-intermediate S. aureus VISA HIP5827; type: cell-based, Staphylococcus aureus; conditions: for MIC: Staphylococcus aureus VISA/HIP5827, read-out: MIC; for MIC-fold improvement vs. vancomycin: VISA/HIP5827, ratio of MIC of vancomycin and MIC of analogue
How it was run: as §1

[12] = tested on: S. aureus VRSA; experiment: MIC, broth microdilution, vancomycin-resistant S. aureus (VRSA); type: cell-based, Staphylococcus aureus; conditions: for MIC: Staphylococcus aureus VRSA, read-out: MIC; for MIC-fold improvement vs. vancomycin: VRSA, ratio of MIC of vancomycin and MIC of analogue
How it was run: as §1

[13] = tested on: MRSA KS2; experiment: MIC, broth microdilution, MRSA KS2; type: cell-based, Staphylococcus aureus; conditions: for MIC-fold improvement vs. vancomycin: MRSA KS2, ratio of MIC of vancomycin and MIC of analogue; for MIC: Staphylococcus aureus MRSA KS2, read-out: MIC
How it was run: as §1

[14] = tested on: MRSA KS6; experiment: MIC, broth microdilution, MRSA KS6; type: cell-based, Staphylococcus aureus; conditions: for MIC-fold improvement vs. vancomycin: MRSA KS6, ratio of MIC of vancomycin and MIC of analogue; for MIC: Staphylococcus aureus MRSA KS6, read-out: MIC
How it was run: as §1

[15] = tested on: MRSA KS89; experiment: MIC, broth microdilution, MRSA KS89; type: cell-based, Staphylococcus aureus; conditions: for MIC-fold improvement vs. vancomycin: MRSA KS8, ratio of MIC of vancomycin and MIC of analogue; for MIC: Staphylococcus aureus MRSA KS8, read-out: MIC
How it was run: as §1

[16] = tested on: MRSA KS1; experiment: MIC, broth microdilution, MRSA KS1; type: cell-based, Staphylococcus aureus; conditions: for MIC-fold improvement vs. vancomycin: MRSA KS1, ratio of MIC of vancomycin and MIC of analogue; for MIC: Staphylococcus aureus MRSA KS1, read-out: MIC
How it was run: as §1

SMILES	MIC [1] [µM]	MIC-fold improvement vs. vancomycin [1]	MIC [2] [µM]	MIC-fold improvement vs. vancomycin [2]	MIC [3] [µM]	MIC-fold improvement vs. vancomycin [3]	MIC [4] [µM]	MIC-fold improvement vs. vancomycin [4]	MIC [5] [µM]	IC50 [6] [µM]	IC50 [7] [µM]	IC50 [8] [µM]	IC50 [9] [µM]	MIC [10] [µM]	MIC-fold improvement vs. vancomycin [10]	MIC [11] [µM]	MIC-fold improvement vs. vancomycin [11]	MIC [12] [µM]	MIC-fold improvement vs. vancomycin [12]	MIC-fold improvement vs. vancomycin [13]	further results
CNC(CC(C)C)C(=O)NC1C(=O)NC(CC(N)=O)C(=O)NC2C(=O)NC3C(=O)NC(C(=O)NC(C(=O)NCC(=O)NC4c5ccccc5-c5ccccc54)c4cc(O)cc(O)c4-c4cc3ccc4O)C(O)c3ccc(c(Cl)c3)Oc3cc2cc(c3OC2OC(CO)C(O)C(O)C2OC2CC(C)(N)C(O)C(C)O2)Oc2ccc(cc2Cl)C1O (stereo not shown) [Vanc-90]	≤0.05	≥32	1.56 (≈ 2.6 µg/mL)	128	12.5 (≈ 20.9 µg/mL)	32	3.13 (≈ 5.23 µg/mL)	128	3.13 (≈ 5.23 µg/mL)	175 ± 106	68 ± 8	127 ± 27	123	0.10 (≈ 0.167 µg/mL)	8	0.39 (≈ 0.651 µg/mL)	16	0.78 (≈ 1.3 µg/mL)	128	8	MIC-fold improvement vs. vancomycin ([5]; VRE 37, ratio of MIC of vancomycin and MIC of analogue): 128; MIC [13]: 0.10 µM (≈ 0.167 µg/mL); MIC-fold improvement vs. vancomycin [14]: 4; MIC [14]: 0.20 µM (≈ 0.334 µg/mL); MIC-fold improvement vs. vancomycin [15]: 4; MIC [15]: 0.20 µM (≈ 0.334 µg/mL); MIC-fold improvement vs. vancomycin [16]: 8; MIC [16]: 0.10 µM (≈ 0.167 µg/mL)
CNC(CC(C)C)C(=O)NC1C(=O)NC(CC(N)=O)C(=O)NC2C(=O)NC3C(=O)NC(C(=O)NC(C(=O)NCCCNC(=O)c4ccc5ccccc5n4)c4cc(O)cc(O)c4-c4cc3ccc4O)C(O)c3ccc(c(Cl)c3)Oc3cc2cc(c3OC2OC(CO)C(O)C(O)C2OC2CC(C)(N)C(O)C(C)O2)Oc2ccc(cc2Cl)C1O (stereo not shown) [Vanc-27]	0.39 (≈ 0.648 µg/mL)	4	3.13 (≈ 5.2 µg/mL)	64	25 (≈ 41.5 µg/mL)	16	12.5 (≈ 20.8 µg/mL)	32	12.5 (≈ 20.8 µg/mL)	> 250	229 ± 30	76 ± 8	185	0.39 (≈ 0.648 µg/mL)	2	0.39 (≈ 0.648 µg/mL)	16	6.25 (≈ 10.4 µg/mL)	16	2	MIC [13]: 0.39 µM (≈ 0.648 µg/mL); MIC-fold improvement vs. vancomycin [14]: 2; MIC [14]: 0.39 µM (≈ 0.648 µg/mL); MIC-fold improvement vs. vancomycin [15]: 1; MIC [15]: 0.78 µM (≈ 1.3 µg/mL); MIC-fold improvement vs. vancomycin [16]: 2; MIC [16]: 0.39 µM (≈ 0.648 µg/mL)
